Among the test systems are OVCAR-3 ovarian; T-47D breast; HOP-92 NSCLC; NCI/ADR-RES ovarian; SK-MEL-5 melanoma; SF-268 CNS; SK-MEL-28 melanoma; NCI-H522 lung; HT29 colon; SN12C renal.
Holding throughout (experiment): NCI tumour cell line growth inhibition, 48 h

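A five-concentration, 48-hour dose response in 96-well plates underlies each endpoint, interpolated linearly between surrounding concentrations. GI50 marks 50% less growth. TGI denotes the concentration required for complete inhibition of growth.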

For `COc1cc(C)c(C(=O)O[C@H]2[C@H](O[C@H]3[C@@H](O)COC(O[C@H]4C[C@H]5[C@@H]6CC=C7C[C@@H](O)CC[C@]7(C)[C@H]6CC[C@]5(C)[C@H]4[C@H](C)C(=O)CCC(C)C)[C@@H]3OC(C)=O)OC[C@@H](O)[C@@H]2O)c(C)c1` (stereo partly drawn), the GI50 in the assay with OVCAR-3 ovarian is 2.77 µM; in the assay on T-47D breast, 24.9 nM; in the assay on HOP-92 NSCLC, less than 0.01 µM; in the assay with NCI/ADR-RES ovarian it was 4.79 µM; with SK-MEL-5 melanoma, less than 10 nM; with SF-268 CNS it was less than 10 nM. For the same molecule, the GI50 in the assay with SK-MEL-28 melanoma was less than 0.01 µM; in the assay on NCI-H522 lung, less than 10 nM; in the assay on HT29 colon it was 157 nM; with SN12C renal it was 10 µM. For the same molecule, the TGI in the assay on OVCAR-3 ovarian is 22 µM; with T-47D breast, 16.7 µM; with HOP-92 NSCLC, 2.58 µM; with NCI/ADR-RES ovarian, 31.2 µM; with SK-MEL-5 melanoma it was 0.0181 µM; with SF-268 CNS, 2.92 µM. The TGI is 0.0192 µM in the assay with SK-MEL-28 melanoma, 0.334 µM in the assay on NCI-H522 lung, 15.7 µM in the assay on HT29 colon and 25.6 µM in the assay with SN12C renal.

With `O=C(/C=C/c1ccc(C(F)(F)F)cc1)c1ccc(Nc2nc(NCCO)nc(NCCO)n2)cc1`, the GI50 is 2.02 µM in the assay with OVCAR-3 ovarian; 2510 nM with T-47D breast; 5.28 µM in the assay on HOP-92 NSCLC; 15.2 µM in the assay with NCI/ADR-RES ovarian; 3120 nM with SK-MEL-5 melanoma; 2800 nM in the assay on SF-268 CNS. For the same molecule, the GI50 in the assay on SK-MEL-28 melanoma is 3.45 µM; with NCI-H522 lung, 2150 nM; in the assay with HT29 colon, 2500 nM; with SN12C renal it was 2.71 µM. Also, the TGI in the assay on OVCAR-3 ovarian was found to be 4.19 µM; in the assay with T-47D breast it was 11.8 µM; in the assay on HOP-92 NSCLC, 25 µM; in the assay on NCI/ADR-RES ovarian, 35 µM; in the assay with SK-MEL-5 melanoma, 10.5 µM; in the assay on SF-268 CNS, 11.5 µM. For the same molecule, the TGI in the assay with SK-MEL-28 melanoma was found to be 13 µM; with NCI-H522 lung, 6.66 µM; in the assay on HT29 colon it was 6.91 µM; in the assay on SN12C renal it was 9.7 µM.

With `O=C(c1ccccc1)C1C(C(=O)c2ccccc2)N1Cc1ccccc1` (stereo not drawn), the TGI in the assay on OVCAR-3 ovarian was 99.2 µM; in the assay on T-47D breast, 49.8 µM; in the assay with HOP-92 NSCLC, more than 100 µM; with NCI/ADR-RES ovarian it was more than 100 µM; in the assay on SK-MEL-5 melanoma, 36.7 µM; in the assay on SF-268 CNS, more than 100 µM. Moreover, the TGI in the assay with SK-MEL-28 melanoma is more than 100 µM; in the assay with NCI-H522 lung, 74.6 µM; in the assay on HT29 colon, more than 100 µM; in the assay on SN12C renal, 95.1 µM.

With `NC(=O)CCC(NC(=O)OCc1ccccc1)C(=O)OCC(=O)c1ccccc1` (stereo not drawn), the GI50 with OVCAR-3 ovarian is more than 100 µM; in the assay with T-47D breast, more than 100000 nM; with HOP-92 NSCLC, more than 100 µM; in the assay on NCI/ADR-RES ovarian it was more than 100 µM; in the assay with SK-MEL-5 melanoma, more than 100000 nM; with SF-268 CNS it was more than 100000 nM. Further, the GI50 is 43.9 µM in the assay with SK-MEL-28 melanoma, more than 100000 nM in the assay with NCI-H522 lung, more than 100000 nM in the assay with HT29 colon and more than 100 µM in the assay with SN12C renal. Further, the TGI with OVCAR-3 ovarian, with T-47D breast, with HOP-92 NSCLC, with NCI/ADR-RES ovarian, in the assay on SK-MEL-5 melanoma and with SF-268 CNS was more than 100 µM throughout. Also, the TGI in the assay on SK-MEL-28 melanoma, with NCI-H522 lung, with HT29 colon and in the assay with SN12C renal was more than 100 µM each time.

For `COc1ccc(N2CCN(C(=O)c3ccccc3Nc3ccnc(C(F)(F)F)c3)CC2)cc1`, the GI50 is 28.5 µM in the assay with OVCAR-3 ovarian; 9230 nM in the assay with T-47D breast; 5.33 µM in the assay with HOP-92 NSCLC; 23.8 µM with NCI/ADR-RES ovarian; 10300 nM with SK-MEL-5 melanoma; more than 100000 nM in the assay on SF-268 CNS. In addition, the GI50 is more than 100 µM in the assay with SK-MEL-28 melanoma, 18100 nM with NCI-H522 lung, 77100 nM with HT29 colon and 64.4 µM in the assay with SN12C renal. Also, the TGI in the assay on OVCAR-3 ovarian is more than 100 µM; with T-47D breast it was 96.7 µM; with HOP-92 NSCLC, 68.8 µM; with NCI/ADR-RES ovarian, more than 100 µM; with SK-MEL-5 melanoma it was 29.4 µM; in the assay with SF-268 CNS, more than 100 µM. Also, the TGI with SK-MEL-28 melanoma, in the assay with NCI-H522 lung, in the assay on HT29 colon and with SN12C renal was more than 100 µM in each case.

Take `CC(CN=C(CC(=O)c1ccc(Br)cc1)c1ccccc1)N=C(CC(=O)c1ccc(Br)cc1)c1ccccc1` (stereo not drawn): the TGI with OVCAR-3 ovarian was 14.7 µM; with T-47D breast, more than 100 µM; with HOP-92 NSCLC it was 78.8 µM; in the assay with NCI/ADR-RES ovarian it was more than 100 µM; in the assay on SK-MEL-5 melanoma, 8.9 µM; in the assay on SF-268 CNS, more than 100 µM. Further, the TGI in the assay on SK-MEL-28 melanoma, with NCI-H522 lung, in the assay with HT29 colon and in the assay on SN12C renal was more than 100 µM each time. Moreover, the GI50 in the assay on T-47D breast was 3090 nM; with HOP-92 NSCLC, 11.5 µM; with NCI/ADR-RES ovarian, 14.2 µM; with SK-MEL-5 melanoma, 2180 nM; in the assay on SF-268 CNS it was 29900 nM; in the assay with SK-MEL-28 melanoma, more than 100 µM. The GI50 in the assay on NCI-H522 lung was 5530 nM; with HT29 colon, 7700 nM; with SN12C renal it was 64.1 µM.

As for `Cc1ccc(Cl)cc1Nc1nc(C(F)(F)F)ccc1C(=O)Nc1cccc(C(F)(F)F)c1`, the GI50 was 4.18 µM with OVCAR-3 ovarian; 2230 nM in the assay on T-47D breast; 2.2 µM in the assay on HOP-92 NSCLC; 2.13 µM in the assay with NCI/ADR-RES ovarian; 2180 nM in the assay on SK-MEL-5 melanoma; 3590 nM in the assay on SF-268 CNS. The GI50 in the assay on SK-MEL-28 melanoma was 4.55 µM; in the assay with NCI-H522 lung it was 1780 nM; in the assay with HT29 colon it was 2820 nM; in the assay with SN12C renal, 4.29 µM. Besides, the TGI with OVCAR-3 ovarian came to 20.1 µM; with T-47D breast, 8.95 µM; in the assay with HOP-92 NSCLC it was 8.69 µM; in the assay with NCI/ADR-RES ovarian, 7.66 µM; with SK-MEL-5 melanoma, 4.5 µM; with SF-268 CNS, 13.8 µM. Moreover, the TGI came out at 18.3 µM with SK-MEL-28 melanoma, 6.37 µM with NCI-H522 lung, 12.8 µM with HT29 colon and 18.7 µM with SN12C renal.

On to `CC1(C)CCC[C@]23C(=O)O[C@](O)(C(=O)C4=C[C@@](C)(/C=C/CCCc5ccc6ccc7cccc8ccc5c6c78)CC[C@@]42O)[C@@H]13`, for which the GI50 in the assay with OVCAR-3 ovarian is 0.174 µM; in the assay with T-47D breast, 167 nM; in the assay on HOP-92 NSCLC, 0.148 µM; in the assay with NCI/ADR-RES ovarian it was 0.221 µM; in the assay on SK-MEL-5 melanoma it was 185 nM; in the assay with SF-268 CNS, 208 nM. Further, the GI50 in the assay with SK-MEL-28 melanoma was 0.144 µM; in the assay on NCI-H522 lung it was 200 nM; in the assay with HT29 colon, 235 nM; in the assay with SN12C renal it was 0.164 µM. The TGI with OVCAR-3 ovarian was 0.336 µM; in the assay with T-47D breast it was 0.422 µM; in the assay with HOP-92 NSCLC, 0.302 µM; in the assay on NCI/ADR-RES ovarian it was 0.532 µM; in the assay with SK-MEL-5 melanoma, 0.327 µM; with SF-268 CNS it was 0.498 µM. In addition, the TGI in the assay on SK-MEL-28 melanoma stood at 0.317 µM; with NCI-H522 lung, 0.475 µM; in the assay on HT29 colon it was 0.603 µM; with SN12C renal it was 0.339 µM.

As to `CC[C@@]1(O)C(=O)NCc2c1cc1n(c2=O)Cc2cc3ccccc3nc2-1`, the GI50 was 34.4 µM in the assay with OVCAR-3 ovarian; 2630 nM in the assay on T-47D breast; 2.92 µM in the assay with NCI/ADR-RES ovarian; 2770 nM in the assay with SK-MEL-5 melanoma; 706 nM with SF-268 CNS; more than 53.7 µM with SK-MEL-28 melanoma. Besides, the GI50 in the assay on NCI-H522 lung was more than 22600 nM; in the assay on HT29 colon, 9050 nM; in the assay on SN12C renal, 2.03 µM. The TGI with OVCAR-3 ovarian is more than 100 µM; with T-47D breast, more than 100 µM; with HOP-92 NSCLC, more than 29.4 µM; in the assay on NCI/ADR-RES ovarian, more than 48.2 µM; in the assay with SK-MEL-5 melanoma it was 18.7 µM; with SF-268 CNS, more than 100 µM. Moreover, the TGI was more than 100 µM in the assay with SK-MEL-28 melanoma, more than 100 µM with NCI-H522 lung, more than 93.7 µM in the assay with HT29 colon and more than 32.6 µM in the assay on SN12C renal.

The values above are taken from PubChem BioAssay (NCI).
